Data from ChEMBL document CHEMBL3885861, “Open TG-GATES”.

Species: Rattus norvegicus
Assay: Open TG-GATES - Regimen: Single
Format: toxicity, organism-based, Sprague-Dawley
Design: regimen Single, gender Male, age 6 weeks
Settings: in vivo, iv, 0 mg/kg, route intravenous injection, dose level Control; for APTT / Bas / Eos / Fbg / Hb / Ht / Lym / MCH / MCHC / MCV / Mono / Neu / PT / Plat / RBC / Ret / WBC: tissue Blood; for KIDNEY_L / KIDNEY_R / KIDNEY_TOTAL: tissue Kidney; for LIVER: tissue Liver; for A/G / ALP / ALT / AST / BUN / CRE / Ca / Cl / DBIL / GLC / IP / K / LDH / Na / PL / RALB / TBIL / TC / TG / TP / gamma-GTP: tissue Plasma

Q: Which results are given for NCCBr [BROMOETHANAMINE]?
A: TERMINAL_BW (3 h): 221.8 g; APTT (3 h): 22.1 s; Bas (3 h): 0%; Eos (3 h): 0.6%; Fbg (3 h): 305.4 mg/dL; Hb (3 h): 13.4 g/dL; Ht (3 h): 39.5%; Lym (3 h): 82.4%; MCH (3 h): 22.5 pg; MCHC (3 h): 33.9%; MCV (3 h): 66.4 fL; Mono (3 h): 2.2%; Neu (3 h): 14.2%; PT (3 h): 16.2 s; Plat (3 h): 118.2 x10_4/uL; RBC (3 h): 594.4 x10_4/ul; Ret (3 h): 6.3%; WBC (3 h): 94.3 x10_2/uL; KIDNEY_L (3 h): 1 g; KIDNEY_R (3 h): 1 g; KIDNEY_TOTAL (3 h): 2 g; LIVER (3 h): 10.5 g; A/G (3 h): 1.2; ALP (3 h): 1743.8 IU/L; ALT (3 h): 43.2 IU/L; AST (3 h): 76.2 IU/L; BUN (3 h): 13.2 mg/dL; CRE (3 h): 0.1 mg/dL; Ca (3 h): 10.8 mg/dL; Cl (3 h): 105.4 meq/L; DBIL (3 h): 0 mg/dL; GLC (3 h): 188.4 mg/dL; IP (3 h): 7.5 mg/dL; K (3 h): 4.1 meq/L; LDH (3 h): 174.6 IU/L; Na (3 h): 142.2 meq/L; PL (3 h): 131.8 mg/dL; RALB (3 h): 3 g/dL; TBIL (3 h): 0.018 mg/dL; TC (3 h): 70.2 mg/dL; TG (3 h): 79.8 mg/dL; TP (3 h): 5.4 g/dL; gamma-GTP (3 h): 1.6 IU/L; TERMINAL_BW (6 h): 213.6 g; APTT (6 h): 23.7 s; Bas (6 h): 0%; Eos (6 h): 0.8%; Fbg (6 h): 313.6 mg/dL; Hb (6 h): 13.5 g/dL; Ht (6 h): 39.2%; Lym (6 h): 80%; MCH (6 h): 21.6 pg; MCHC (6 h): 34.4%; MCV (6 h): 62.7 fL; Mono (6 h): 3%; Neu (6 h): 15.8%; PT (6 h): 15.8 s; Plat (6 h): 121.6 x10_4/uL; RBC (6 h): 624.8 x10_4/ul; Ret (6 h): 6.1%; WBC (6 h): 83.9 x10_2/uL; KIDNEY_L (6 h): 0.9 g; KIDNEY_R (6 h): 1 g; KIDNEY_TOTAL (6 h): 1.9 g; LIVER (6 h): 9.2 g; A/G (6 h): 1.1; ALP (6 h): 1411.4 IU/L; ALT (6 h): 39 IU/L; AST (6 h): 71.2 IU/L; BUN (6 h): 11 mg/dL; CRE (6 h): 0.1 mg/dL; Ca (6 h): 10.3 mg/dL; Cl (6 h): 104.6 meq/L; DBIL (6 h): 0 mg/dL; GLC (6 h): 195.8 mg/dL; IP (6 h): 9.7 mg/dL; K (6 h): 4.1 meq/L; LDH (6 h): 189.6 IU/L; Na (6 h): 141 meq/L; PL (6 h): 145.2 mg/dL; RALB (6 h): 2.9 g/dL; TBIL (6 h): 0.014 mg/dL; TC (6 h): 87.2 mg/dL; TG (6 h): 47.8 mg/dL; TP (6 h): 5.4 g/dL; gamma-GTP (6 h): 1.6 IU/L; TERMINAL_BW (9 h): 218.3 g; APTT (9 h): 22.5 s; Bas (9 h): 0%; Eos (9 h): 0.8%; Fbg (9 h): 317.8 mg/dL; Hb (9 h): 13.3 g/dL; Ht (9 h): 39%; Lym (9 h): 78.6%; MCH (9 h): 21.3 pg; MCHC (9 h): 34%; MCV (9 h): 62.7 fL; Mono (9 h): 2%; Neu (9 h): 18%; PT (9 h): 16.3 s; Plat (9 h): 128.4 x10_4/uL; RBC (9 h): 623.8 x10_4/ul; Ret (9 h): 6.4%; WBC (9 h): 84.9 x10_2/uL; KIDNEY_L (9 h): 0.9 g; KIDNEY_R (9 h): 1 g; KIDNEY_TOTAL (9 h): 1.9 g; LIVER (9 h): 9.1 g; A/G (9 h): 1.2; ALP (9 h): 1721.2 IU/L; ALT (9 h): 33.4 IU/L; AST (9 h): 64.6 IU/L; BUN (9 h): 13.6 mg/dL; CRE (9 h): 0.2 mg/dL; Ca (9 h): 10.4 mg/dL; Cl (9 h): 106.4 meq/L; DBIL (9 h): 0.002 mg/dL; GLC (9 h): 188.8 mg/dL; IP (9 h): 9.6 mg/dL; K (9 h): 4.2 meq/L; LDH (9 h): 152.6 IU/L; Na (9 h): 140.6 meq/L; PL (9 h): 124.4 mg/dL; RALB (9 h): 2.9 g/dL; TBIL (9 h): 0.022 mg/dL; TC (9 h): 68.8 mg/dL; TG (9 h): 63.4 mg/dL; TP (9 h): 5.4 g/dL; gamma-GTP (9 h): 1.6 IU/L; TERMINAL_BW (24 h): 226.9 g; APTT (24 h): 21.5 s; Bas (24 h): 0%; Eos (24 h): 0.8%; Fbg (24 h): 316.6 mg/dL; Hb (24 h): 13.6 g/dL; Ht (24 h): 39.1%; Lym (24 h): 79.2%; MCH (24 h): 21.2 pg; MCHC (24 h): 34.7%; MCV (24 h): 61.1 fL; Mono (24 h): 2.6%; Neu (24 h): 16.2%; PT (24 h): 16.4 s; Plat (24 h): 126.9 x10_4/uL; RBC (24 h): 640.8 x10_4/ul; Ret (24 h): 5.5%; WBC (24 h): 103.5 x10_2/uL; KIDNEY_L (24 h): 1 g; KIDNEY_R (24 h): 1 g; KIDNEY_TOTAL (24 h): 2 g; LIVER (24 h): 10.4 g; A/G (24 h): 1.1; ALP (24 h): 1595.2 IU/L; ALT (24 h): 41.4 IU/L; AST (24 h): 71 IU/L; BUN (24 h): 18 mg/dL; CRE (24 h): 0.2 mg/dL; Ca (24 h): 10.8 mg/dL; Cl (24 h): 106 meq/L; DBIL (24 h): 0 mg/dL; GLC (24 h): 191.6 mg/dL; IP (24 h): 6.8 mg/dL; K (24 h): 4.9 meq/L; LDH (24 h): 222.8 IU/L; Na (24 h): 140.6 meq/L; PL (24 h): 147.6 mg/dL; RALB (24 h): 2.9 g/dL; TBIL (24 h): 0.006 mg/dL; TC (24 h): 75.8 mg/dL; TG (24 h): 134.2 mg/dL; TP (24 h): 5.5 g/dL; gamma-GTP (24 h): 2 IU/L
